Data on nine compounds can be found in patent US6300368A, “Anilide derivatives and antiarrhythmic agents containing the same” (priority 1998, dated 2001).

Series [1] concerns ventricular function. The conditions noted are these: cited from earlier work.
Series [2] relates to Purkinje's fiber. Kind of series: Effects on ventricle: action potential of Purkinje's fiber from dog right ventricular free wall (Pharmacological Trial 2). It counts as cell-based. To be noted: Canis lupus familiaris. An excerpt:
Pharmacological Trial 2: Evaluation of Effects on Ventricle
Method: Purkinje's fiber specimen excised from the right ventricular free wall of dog, perfused with normal Tyrode solution and driven by electrical stimulation (fundamental frequency=1 Hz) was used. Standard glass microelectrode was used to record action potential.

The test system of series [3] is aconitin-induced atrial fibrillation. Kind of series: Aconitin-induced atrial fibrillation model in anaesthetized dogs (Pharmacological Trial 1). It counts as in vivo, dog. To be noted: Canis lupus familiaris; intravenous, anesthetized dogs, as hydrochloride; read-out: minimum dose level which suppresses atrial fibrillation. Here is the method:
Pharmacological Trial 1: Evaluation of effectiveness in aconitin-induced atrial fibrillation model (dogs) Evaluation was performed according to K. Hashimoto (Jpn. J. Pharmacol., Vol. 46, 349-358, 1988) as follows:
Method: Dog was anesthetized and thoracotomy was made. Persistent atrial fibrillation was induced by placing a piece of filter paper impregnated with 0.5% aconitin solution (20 to 30 μl) on the right atrium. […] Onset and suppression of atrial fibrillation were monitored electrocardiographically by placing Ag--AgCl bipolar electrode on the right atrial auricle.
Results: Each compound in Examples 1 to 87 suppressed atrial fibrillation at least following dose level (all compounds were used in the form of hydrochloride).

Where two headings read alike, the source gives them in different places.

Regarding `CC(=O)Nc1ccc(OCCNC2CCCCC2)cc1` [4'-[2-(cyclohexylamino)ethoxy] acetanilide], the “action on ventricular function” value in series [1] is on record as “act suppressively on ventricular function”.
Consider `CC(C)N(CCC(C(N)=O)(c1ccccc1)c1ccccn1)C(C)C` (stereo not drawn) [Disopyramido], for which, in series [2] (read-out: suppression of Vmax (maximum rate of rise for action potential)), the inhibition at 30 µM turned out to be 33%.
In the case of `CN(CCOc1ccc(NS(C)(=O)=O)cc1)CCc1ccc(NS(C)(=O)=O)cc1` [Dofetilide], the activation at 10 µM was determined as 57% in series [2] (read-out: extension of APD50 (duration to repolarize 50%)), 45% in series [2] (read-out: extension of APD75 (duration to repolarize 75%)) and 42% in series [2] (read-out: extension of APD90 (duration to repolarize 90%)).
As to `Cc1cc(NC(=O)C2CCOC2)cc(C)c1OCCNC(C)C.Cl` (stereo not drawn) [Example 84, 4'-[2-(Isopropylamino)ethoxy]-3',5'-dimethyl-2,3,4,5-tetrahydro-3-furanilide Hydrochloride], in series [3], the minimal effective dose came to 10 mg/kg.
The same measure, in the same setting: the same measure for `Cc1cc(NC(=O)C2CCOCC2)cc(C)c1OCCNC(C)C.Cl` [Example 85, 4'-[2-(Isopropylamino)ethoxy]-3',5'-dimethyl-3,4,5,6-tetrahydro-2H-pyran-4-carboxanilide Hydrochloride]: 10 mg/kg; for `COCCC(=O)Nc1cc(C)c(OCCNC(C)C)c(C)c1.Cl` [Example 86, 4'-[2-(Isopropylamino)ethoxy]-3-methoxy-3',5'-dimethyl propananilide Hydrochloride]: 3 mg/kg; for `Cc1cc(NC(=O)c2ccoc2)cc(C)c1OCCNC(C)C.Cl` [Example 87, 4'-[2-(Isopropylamino)ethoxy]-3',5'-dimethyl-3-furanilide Hydrochloride]: 10 mg/kg.
For `O=C(NCC1CCCCN1)c1cc(OCC(F)(F)F)ccc1OCC(F)(F)F` (stereo not drawn) [Flecanide], the inhibition at 3 µM in series [2] (3 μM, read-out: suppression of Vmax (maximum rate of rise for action potential)) came out at 30%.
With `CC(=O)Nc1ccc(OCCNC(C)C)cc1.Cl` [Reference 1, 4'-[2-(Isopropylamino)ethoxy]acetanilide Hydrochloride], the inhibition at 30 µM in series [2] (30 μM, read-out: suppression of Vmax (maximum rate of rise for action potential)) amounted to 15%. In addition, the “action on ventricular function” value in series [1] is reported as “act suppressively on ventricular function”.
